Assay results published in patent US12060351B2, “Thiadiazole IRAK4 inhibitors” (Gilead Sciences, Inc., priority 2018, dated 2024).
Read-outs that look alike come from different tables or passages of the source.

Key:
TNFα = assay: IRAK4 Monocyte TNFα Cell Based Assay (LPS-stimulated, TR-FRET TNFα detection); design: species or system human; conditions: Homo sapiens, Monocyte, human monocytes, LPS-stimulated; Table 2 second part (compounds 33-343); read-out: EC50 MONO TNF HTRF
Protocol: IRAK4 Monocyte TNFα Cell Based Assay Procedure:
The cell suspension was then plated at a density of 5,000 cells/well onto black 384 well Greiner clear bottom plates. Plates were pre-spotted with test compounds and serially diluted in DMSO where 40 nL/well were delivered using the Echo 550 acoustic liquid dispenser (Labcyte®) for a final DMSO concentration of 0.1%. Plated cells were treated with compound for 1 hour at 37° C. Cells were then stimulated with 50 pg/ml of LPS (Sigma) excluding outside columns of plate used for unstimulated cell control wells. Cells were incubated for an additional 4 hours at 37° C. Cells were then spun out of the media and 5 μl of sample were taken and analyzed for total TNFα content using the TR-FRET Human TNFα detection system (CisBio). This system utilizes two labeled antibodies (cryptate and XL665) that bind to two different epitopes of the TNFα molecule and produce FRET signal proportional to the concentration of TNFα in the sample. Detection antibodies are mixed 50:50 and 5 μL were dispensed into each well. Plates were covered with clear seals and incubated at room temp overnight. […] Percent of control was calculated as follows: % Control=100×(RatioSample−Ratio0% Stimulation)/(Ratio100% Stimulation−Ratio0% Stimulation) where unstimulated cells (0% stimulation) were the negative control and stimulated cells (100% stimulation) were used as the positive control.

IRAK4 enzyme = target: T1, IRAK4 enzyme (Homo sapiens, UniProt Q9NWZ3); assay: IRAK4 Biochemical Assay (TR-FRET, STK1 KinEASE); conditions: 500 μM ATP
T1 construct: purchased Carna Biosciences, Chuo-ku, Kobe, Japan
T1 sequence (Q9NWZ3 1-460): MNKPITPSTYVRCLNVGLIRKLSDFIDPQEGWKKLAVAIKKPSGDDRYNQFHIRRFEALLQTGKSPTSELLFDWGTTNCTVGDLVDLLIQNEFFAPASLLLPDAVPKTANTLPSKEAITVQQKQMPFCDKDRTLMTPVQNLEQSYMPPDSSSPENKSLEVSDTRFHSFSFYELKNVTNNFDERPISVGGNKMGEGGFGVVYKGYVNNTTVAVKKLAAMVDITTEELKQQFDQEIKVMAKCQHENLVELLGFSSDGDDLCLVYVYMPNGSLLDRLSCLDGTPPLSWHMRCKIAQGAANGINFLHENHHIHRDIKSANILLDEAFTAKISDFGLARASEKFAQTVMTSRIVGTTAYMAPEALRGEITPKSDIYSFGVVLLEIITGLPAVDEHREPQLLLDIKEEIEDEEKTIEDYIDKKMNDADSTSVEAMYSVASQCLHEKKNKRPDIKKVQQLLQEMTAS
Protocol: IRAK4 enzyme (Carna Biosciences, Chuo-ku, Kobe, Japan) activity was measured by detecting phosphorylated peptide substrate formation using an antibody against the phosphorylated peptide substrate. This is a time-resolved fluorescence resonance energy transfer (TR-FRET) immunoassay, based on the STK1 KinEASE Assay (Cisbio, Bedford, Massachusetts). The assay was designed as a simple two-step, endpoint assay (a 5 μl enzyme reaction followed by 5 μl stop and detect Solution) performed in ProxiPlate-384 Plus plates (Perkin Elmer, Waltham, Massachusetts). […] Compounds diluted in DMSO were spotted into 384 well plates using a Labcyte® Echo 550 Liquid Handling System prior to addition of IRAK4 enzyme and peptide substrate. Reaction solutions were delivered using a Multi-Flo (Bio-Tek Instruments). The enzyme and peptide solution was incubated with compound for 15 minutes at room temp before the reaction was initiated by the addition of ATP. The standard 5 μl reaction mixture contained 500 μM ATP, 2 μM peptide (STK1 Peptide), 0.75 nM of IRAK4 in reaction buffer (50 mM HEPES, pH 7.0, 0.02% NaN3, 0.01% BSA, 0.1 mM Orthovanadate, 5 mM MgCl2, 0.025% NP-40, 1 mM DTT). After 120 min of incubation at room temperature, 5 μl of Stop and Detect Solution (1:100 Cryptate labeled anti-phosphorylated peptide antibody solution and 125 nM Tracer in a 50 mM HEPES pH 7.0 detection buffer containing sufficient EDTA) was added. The plate was then further incubated for 60 minutes at room temperature and read on Envision 2103 Multilabeled reader (PerkinElmer) with excitation/emission/FRET emission at 340 nm/615 nm/665 nm, respectively. Fluorescence intensities at 615 nm and 665 nm emission wavelengths were expressed as a ratio (665 nm/615 nm).

[1] = Table 2 second part (compounds 33-343), read-out: IC50 IRAK4-HTBS

SMILES	EC50 (TNFα) [nM]	IC50 (IRAK4 enzyme; [1]) [nM]	IC50 (IRAK4 enzyme; Table 2 first part (compounds 1-32), read-out: IC50 HTRF) [nM]
CC(C)Nc1cc(-c2ccc3cc(C#N)cnn23)ncc1-c1nnc(N2C[C@H]3CC[C@@H](C2)[C@@H]3Nc2ncccn2)s1 [Compound 308, 7-(4-(isopropylamino)-5-(5-((1R,5S,8s)-8-(pyrimidin-2-ylamino)-3-azabicyclo[3.2.1]octan-3-yl)-1,3,4-thiadiazol-2-yl)pyridin-2-yl)pyrrolo[1,2-b]pyridazine-3-carbonitrile]	18.4	1.85	–
CNc1cc(-c2ccc3cc(C#N)cnn23)ncc1-c1nnc([C@H]2C[C@H](NC(C)=O)C2)s1 [Example 282, N-((1r,3r)-3-(5-(6-(3-cyanopyrrolo[1,2-b]pyridazin-7-yl)-4-(methylamino)pyridin-3-yl)-1,3,4-thiadiazol-2-yl)cyclobutyl)acetamide]	22.4	0.59	–
CC(C)Nc1cc(-c2ccc3cc(C#N)cnn23)ncc1-c1nnc(N2C[C@H]3CC[C@@H](C2)[C@@H]3NC(=O)CN=S(C)(C)=O)s1 [Example 98, N-((1R,5S,8s)-3-(5-(6-(3-cyanopyrrolo[1,2-b]pyridazin-7-yl)-4-(isopropylamino)pyridin-3-yl)-1,3,4-thiadiazol-2-yl)-3-azabicyclo[3.2.1]octan-8-yl)-2-((dimethyl(oxo)-16-sulfanylidene)amino)acetamide]	3.2	1.13	–
CC(=O)N[C@H]1CC[C@H](c2nnc(-c3cnc(-c4ccc5cc(C#N)cnn45)cc3NC3(C)CCOCC3)s2)CC1 [Compound 268, N-((1r,4r)-4-(5-(6-(3-cyanopyrrolo[1,2-b]pyridazin-7-yl)-4-((4-methyltetrahydro-2H-pyran-4-yl)amino)pyridin-3-yl)-1,3,4-thiadiazol-2-yl)cyclohexyl)acetamide]	14.1	0.61	–
CC(C)Nc1cc(-c2ccc3cc(C#N)cnn23)ncc1-c1nnc(N2CCS(=N)(=O)CC2)s1 [Compound 262, 7-(5-(5-(1-imino-1-oxido-116-thiomorpholino)-1,3,4-thiadiazol-2-yl)-4-(isopropylamino)pyridin-2-yl)pyrrolo[1,2-b]pyridazine-3-carbonitrile]	69.9	3.81	–
CC(C)(O)C(=O)N[C@@H]1[C@@H]2CC[C@H]1CN(c1nnc(-c3cnc(-c4ccc5cc(C#N)cnn45)cc3NC3COC3)s1)C2 [Example 87, N-((1R,5S,8s)-3-(5-(6-(3-cyanopyrrolo[1,2-b]pyridazin-7-yl)-4-(oxetan-3-ylamino)pyridin-3-yl)-1,3,4-thiadiazol-2-yl)-3-azabicyclo[3.2.1]octan-8-yl)-2-hydroxy-2-methylpropanamide]	2.1	0.6	–
CC(C)Nc1cc(-c2ccc3cc(C#N)cnn23)ncc1-c1nnc([C@H]2CC[C@H](NC(=O)N3CCOCC3)CC2)s1 [Example 139, N-((1r,4r)-4-(5-(6-(3-cyanopyrrolo[1,2-b]pyridazin-7-yl)-4-(isopropylamino)pyridin-3-yl)-1,3,4-thiadiazol-2-yl)cyclohexyl)morpholine-4-carboxamide]	5.9	0.65	–
CC(=O)N[C@@H]1[C@@H]2CC[C@H]1CN(c1nnc(-c3cnc(-c4ccc5cc(C#N)cnn45)cc3NC(C)C)s1)C2 [Example 38, N-((1R,5S,8s)-3-(5-(6-(3-cyanopyrrolo[1,2-b]pyridazin-7-yl)-4-(isopropylamino)pyridin-3-yl)-1,3,4-thiadiazol-2-yl)-3-azabicyclo[3.2.1]octan-8-yl)acetamide]	3.5	0.8	–
COC(=O)N[C@H]1CC[C@H](Nc2cc(-c3ccc4cc(C#N)cnn34)ncc2-c2nnc([C@H]3CC[C@H](NC(C)=O)CC3)s2)CC1 [Example 34, methyl ((1R,4r)-4-((5-(5-((1r,4R)-4-acetamidocyclohexyl)-1,3,4-thiadiazol-2-yl)-2-(3-cyanopyrrolo[1,2-b]pyridazin-7-yl)pyridin-4-yl)amino)cyclohexyl)carbamate]	4.9	0.55	–
CC1(Nc2cc(-c3ccc4cc(C#N)cnn34)ncc2-c2nnc(N3C[C@H]4CC[C@@H](C3)[C@@H]4NC(=O)C(C)(C)O)s2)COC1 [Example 210, N-((1R,5S,8s)-3-(5-(6-(3-cyanopyrrolo[1,2-b]pyridazin-7-yl)-4-((3-methyloxetan-3-yl)amino)pyridin-3-yl)-1,3,4-thiadiazol-2-yl)-3-azabicyclo[3.2.1]octan-8-yl)-2-hydroxy-2-methylpropanamide]	2.8	0.84	–
CC(C)Nc1cc(-c2ccc3cc(C#N)cnn23)ncc1-c1nnc(N2C[C@H]3CC[C@@H](C2)[C@@H]3Nc2ncccc2F)s1 [Compound 309, 7-(5-(5-((1R,5S,8s)-8-((3-fluoropyridin-2-yl)amino)-3-azabicyclo[3.2.1]octan-3-yl)-1,3,4-thiadiazol-2-yl)-4-(isopropylamino)pyridin-2-yl)pyrrolo[1,2-b]pyridazine-3-carbonitrile]	687	29.4	–
CNC(=O)N[C@H]1CC[C@H](c2nnc(-c3cnc(-c4ccc5cc(C#N)cnn45)cc3NC(C)C)s2)CC1 [Example 140, 1-((1r,4r)-4-(5-(6-(3-cyanopyrrolo[1,2-b]pyridazin-7-yl)-4-(isopropylamino)pyridin-3-yl)-1,3,4-thiadiazol-2-yl)cyclohexyl)-3-mcthylurea]	6.4	0.84	–
CC(=O)N[C@H]1C[C@@H](c2nnc(-c3cnc(-c4ccc5cc(C#N)cnn45)cc3NC(C)C)s2)C1 [Compound 279, N-((1s,3s)-3-(5-(6-(3-cyanopyrrolo[1,2-b]pyridazin-7-yl)-4-(isopropylamino)pyridin-3-yl)-1,3,4-thiadiazol-2-yl)cyclobutyl)acetamide]	15.9	0.4	–
CC(C)(O)C(=O)N[C@@H]1[C@@H]2CC[C@H]1CN(c1nnc(-c3cnc(-c4ccc5cc(C#N)cnn45)cc3NC3CCOCC3)s1)C2 [Example 101, N-((1R,5S,8s)-3-(5-(6-(3-cyanopyrrolo[1,2-b]pyridazin-7-yl)-4-((tetrahydro-2H-pyran-4-yl)amino)pyridin-3-yl)-1,3,4-thiadiazol-2-yl)-3-azabicyclo[3.2.1]octan-8-yl)-2-hydroxy-2-methylpropanamide]	1.2	0.89	–
CC(=O)N[C@H]1CC[C@H](c2nnc(-c3cnc(-c4ccc5cc(C#N)cnn45)cc3NC(C)C)s2)CC1 [Example 24, N-((1r,4r)-4-(5-(6-(3-cyanopyrrolo[1,2-b]pyridazin-7-yl)-4-(isopropylamino)pyridin-3-yl)-1,3,4-thiadiazol-2-yl)cyclohexyl)acetamide]	–	–	< 1
CC(C)Nc1cc(-c2ccc3cc(C#N)cnn23)ncc1-c1nnc(N2C[C@H]3CC[C@@H](C2)[C@H]3O)s1 [Example 146, 7-(5-(5-((1R,5S,8r)-8-hydroxy-3-azabicyclo[3.2.1]octan-3-yl)-1,3,4-thiadiazol-2-yl)-4-(isopropylamino)pyridin-2-yl)pyrrolo[1,2-b]pyridazine-3-carbonitrile]	–	0.48	–
